Holding throughout (assay type): functional, cell-based
Holding throughout (settings): for Activity: time 24-48 hrs

For one experiment, the system named is BXPC-3. Description: Antiproliferative activity against human BXPC-3 cells after 24 to 48 hrs by Cell Titer-Glo luminiscent cell viability assay.
The next experiment has as its system ASPC1. Description: Antiproliferative activity against human ASPC1 cells after 24 to 48 hrs by Cell Titer-Glo luminiscent cell viability assay. For orientation: ATP-based viability assays read luminescence as a measure of living cells.
In another experiment the test system is PANC-1. The experiment can be described thus: Antiproliferative activity against human PANC-1 cells after 24 to 48 hrs by Cell Titer-Glo luminiscent cell viability assay.
A further experiment concerns MIA PaCa-2. Description: Antiproliferative activity against human MIA PaCa-2 cells after 24 to 48 hrs by Cell Titer-Glo luminiscent cell viability assay.

The source made the active and inactive calls. No cut-off for these calls is given here.

IC50 and Activity data for nine compounds are collected here from ChEMBL document CHEMBL5050839, “Methods and compositions for treatment of cancer” (2021).

In general, IC50 refers to the concentration needed to halve the response being measured. A high value points to a need for much substance. For the compound `COc1ccc(CCN2CCC(Nc3nc4ccccc4n3Cc3ccc(F)cc3)CC2)cc1` [ASTEMIZOLE], the IC50 was determined as 3.7 µM with BXPC-3, 5.3 µM with ASPC1, 1.8 µM with PANC-1 and 1.3 µM with MIA PaCa-2.
Regarding `O=C(O)c1ccc(NC(=O)[C@H](Cc2ccc(O)cc2)NC(=O)c2ccccc2)cc1`, the result in the experiment with BXPC-3, in the experiment on ASPC1, in the experiment with PANC-1 and in the experiment with MIA PaCa-2 was Active.
For `CN1CCC(=C2c3ccccc3CC(=O)c3sccc32)CC1`, the result with BXPC-3, with ASPC1, in the experiment on PANC-1 and with MIA PaCa-2 was Active.
As to `COc1ccc(-c2ccc3cc(C(=O)O)ccc3c2)cc1C12CC3CC(CC(C3)C1)C2`, the result with BXPC-3, in the experiment on ASPC1, in the experiment with PANC-1 and in the experiment on MIA PaCa-2 was Active.
For `C[C@]12CC[C@@H]3c4ccc(OS(=O)(=O)O)cc4CC[C@H]3[C@@H]1CCC2=O`, the outcome in the experiment with BXPC-3, in the experiment with ASPC1, in the experiment with PANC-1 and in the experiment on MIA PaCa-2 was Active.
As for `CC1(C)O[C@H]2C[C@H]3[C@@H]4CCC5=CC(=O)C=C[C@]5(C)[C@H]4[C@@H](O)C[C@]3(C)[C@]2(C(=O)CO)O1`, the result in the experiment with BXPC-3, in the experiment on ASPC1, with PANC-1 and with MIA PaCa-2 was Active.
For the compound `CCC1=C(C)CN(C(=O)NCCc2ccc(S(=O)(=O)NC(=O)N[C@H]3CC[C@H](C)CC3)cc2)C1=O`, the result in the experiment on BXPC-3, in the experiment with ASPC1, with PANC-1 and in the experiment with MIA PaCa-2 was Active.
With `Cc1nc2n(c(=O)c1CCN1CCC(c3noc4cc(F)ccc34)CC1)CCCC2O` (stereo unspecified), the outcome with BXPC-3, in the experiment with ASPC1, with PANC-1 and in the experiment with MIA PaCa-2 was Active.
Take `Cc1nc2n(c(=O)c1CCN1CCC(c3noc4cc(F)ccc34)CC1)CCCC2` [RISPERIDONE]: the IC50 in the experiment with BXPC-3 was 7.5 µM; in the experiment on ASPC1 it was 35.3 µM; in the experiment on PANC-1 it was 27.6 µM; in the experiment with MIA PaCa-2, 10 µM.
